pKi: −log10 of the molar value.
Tests used:
human CCR2 [1] = target: T1, human CCR2 (Homo sapiens, UniProt P41597); assay: CCR2 functional calcium assay (FLIPR calcium flux, hMCP-1 challenge); format: cell-based; set-up: expressed in transfected cells; host or cells: HEK293 EBNA cells; settings: HEK293 EBNA cells transfected with human CCR2, hMCP-1 challenge; read-out: Functional CCR2 fKi
Summary of the method: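 FLIPR Fluo-4 calcium flux in HEK293 EBNA cells transfected with human CCR2, with non-transfected cells as control. Compounds (10-point 1:3 curves, typically 30 μM to 0.5 nM) were added in HBSS/20 mM HEPES/0.1% BSA, pH 7.4, followed by MCP-1 challenge. Peak minus basal signal was expressed as % of EC50 MCP-1 response.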

human CCR2 [2] = target: T1, human CCR2; assay: CCR2 binding assay ([125I]-MCP-1 displacement, SPA); set-up: expressed in transfected cells; host or cells: HEK293 EBNA cells (membrane preparation); settings: human CCR2-HEK293 EBNA membranes
Protocol: The binding of test compounds to the CCR2 receptor was evaluated using [^125I]-MCP-1.
Briefly, 25 μL assay buffer (25 mM HEPES, pH 7.4, 5 mM MgCl2, 1 mM CaCl2, 0.2% (w/v) protease free BSA, 100 μg/mL bacitracine and 0.1 M NaCl) was placed into total binding wells and 25 μL unlabelled ligand (0.4 μM MCP-1, for determination of non-specific binding) was placed into non-specific binding wells. [^125I]-MCP-1 (25 μL), human CCR2-HEK293 EBNA membrane preparation (25 μL) and SPA beads (25 μL) were added to all the wells. The wells were incubated for 4 h and counted for 1 min/well in a Perkin Elmer Topcount NXT.
The SPA beads (wheat germ agglutinin (WGA) PEI Type A PVT 0.25 mg/well) were prepared by reconstituting lyophilised bead to 100 mg/mL with de-ionised water and further diluting in assay buffer to give 10 mg/mL. The radioligand ([^125I]-MCP-1) was prepared by dilution in assay buffer to give 0.32 μCi/mL, ˜17600 dpm/25 μL (specific activity 2000 Ci/mMol). The final assay concentration was 0.04 nM. The human CCR2-HEK293 EBNA cells membranes were prepared as follows: cells were spun down at 1000×g for 3 min at room temperature, washed in PBS and spun down again. The cells were then homogenised with an Ultra Turrax at setting 6 in 5-10 mL ice cold buffer A (EDTA 10 mM, HEPES 10 mM, pH 7.4) for 10 sec. Following dilution with further ice cold buffer A and spinning at 20000×g for 20 min at 4° C., the mixture was re-homogenised in 5-10 mL ice cold buffer B (EDTA 0.1 mM, HEPES 10 mM, pH 7.4) and spun at 20000×g for 20 min at 4° C. The protein was assayed and re-suspended in buffer C (Buffer B+1 tablet/10 mL of Roche protease inhibitor cocktail) at 3 mg/mL. Before use, the membranes were thawed and diluted with assay buffer to give 80 μg/mL (2 μg/well).
Specific binding was determined as the difference between total binding in the absence of antagonist and binding in the presence of excess antagonist (non-specific binding). Data was expressed as a percentage of specific binding and analysed by a 4-parameter logistic equation using GraphPad Prism 4 software (GraphPad, San Diego, Calif., USA) to yield IC50 values. Ki values were calculated from the IC50 values using the correction for radioligand concentration.

[3] = test system: rat model of STZ induced diabetes; assay: rat model of STZ induced diabetes (diabetic nephropathy), kidney histology; format: in vivo; settings: male Wistar rats, STZ 50 mg/kg i.p., 8 mg/kg/day oral, kidney day 43, p<0.01 vs STZ-vehicle
Description: Diabetic nephropathy is a common manifestation of renal disease and is defined as the progressive development of renal insufficiency in the setting of hyperglycaemia. This sustained hyperglycaemia causes glomerular mesangial expansion through increased synthesis and decreased degradation of extracellular matrix protein, which progressively destroys the glomerular capillaries, eventually leading to proteinuria and renal failure. Animal models for diabetes can be employed for assessing the mechanisms of the disease, screening potential therapies for the treatment of this condition, and evaluation of therapeutic options. […] A single intraperitoneal injection of STZ in rats results in selective damage of the insulin producing beta cells in the pancreas causing insulin deficiency and subsequent hyperglycaemia after 48 hours. Over the time course of this procedure which can last from 3 weeks to many months, animals develop modest elevations in albuminuria and serum creatinine and some of the histological lesions associated with diabetic nephropathy. The aim of this study was to determine the efficacy of a test compound CCR2 antagonist (Example 33) in a rat model of STZ induced diabetes.
Male Wistar rats were given daily oral administration of the vehicle (30% w/v hydroxypropyl-beta-cyclodextrin (HPBC)) in saline to groups 1 and 3, or oral administration of Example 33 (8 mg/kg/day) to group 2, from 3 days prior to administration of streptozotocin. On day 0 streptozotocin was injected (50 mg/kg body wt, i.p. dissolved in 20 mM sodium citrate buffer) to rats in groups 1 and 2 (STZ groups). Group 3 rats (sham) were injected with an equivalent volume of 20 mM sodium citrate buffer. On day 43 all animals were culled, the left kidney was removed and cut in a sagittal section. These tissue samples were fixed by immersion in 10% (wt/vol) formaldehyde in phosphate-buffered saline (PBS) (0.01 mol/L, pH 7.4) at room temperature. […] The measured parameters were 1) monocyte and macrophage infiltration, 2) tubular damage and 3) glomerular damage. […]

T1 sequence (P41597 whole entry): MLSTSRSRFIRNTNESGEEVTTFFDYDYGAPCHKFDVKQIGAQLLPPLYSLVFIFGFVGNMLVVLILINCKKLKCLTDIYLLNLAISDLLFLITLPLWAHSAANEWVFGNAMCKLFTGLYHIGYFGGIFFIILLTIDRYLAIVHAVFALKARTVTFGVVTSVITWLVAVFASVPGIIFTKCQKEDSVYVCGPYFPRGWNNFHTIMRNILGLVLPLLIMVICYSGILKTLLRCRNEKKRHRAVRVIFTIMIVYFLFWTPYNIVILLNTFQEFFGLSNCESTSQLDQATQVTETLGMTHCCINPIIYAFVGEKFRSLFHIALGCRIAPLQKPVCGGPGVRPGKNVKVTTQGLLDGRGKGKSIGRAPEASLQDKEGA

Structure (SMILES) | pKi (human CCR2 [1]) | pKi (human CCR2 [2]) | glomerular damage (semiquantitative score) [3] | monocyte and macrophage infiltration (semiquantitative score) [3] | tubular damage (semiquantitative score) [3]
Oc1c(Cc2cc(F)cc(C(F)(F)F)c2)c(C2CC2)nc2ccnn12 [Example 33, 5-Cyclopropyl-6-{[3-fluoro-5-(trifluoro-methyl)phenyl]methyl}pyrazolo[1,5-a]-pyrimidin-7-ol] | > 8.00 | 7.00 to 8.00 | statistically significant effect reducing | statistically significant effect reducing | statistically significant effect reducing
CC(C)c1nc2ccnn2c(O)c1Cc1ccc(F)c(C(F)(F)F)c1 [Example 40, 6-{[4-Fluoro-3-(trifluoromethyl)phenyl]-methyl}-5-(propan-2-yl)pyrazolo[1,5-a]-pyrimidin-7-ol] | > 8.00 | 6.00 to 7.00 | – | – | –
Oc1c(Cc2cccc(C(F)(F)F)c2)c(C2CC2)nc2ccnn12 [Example 22, 5-Cycloproyl-6-{[3-(trifluoromethyl)-phenyl]methyl}pyrazolo[1,5-a]pyrimidin-7-ol] | > 8.00 | 7.00 to 8.00 | – | – | –
CCOC(=O)c1nc2ccnn2c(O)c1Cc1ccc(Cl)c(Cl)c1 [Example 72, Ethyl 6-[(3,4-dichlorophenyl)methyl]-7-hydroxypyrazolo[1,5-a]pyrimidine-5-carboxylate] | > 8.00 | 7.00 to 8.00 | – | – | –
CC(C)c1nc2ccnn2c(O)c1Cc1ccc(F)c(Cl)c1 [Example 37, 6-[(3-Chloro-4-fluorophenyl)methyl]-5-(propan-2-yl)pyrazolo[1,5-a]pyrimidin-7-ol] | > 8.00 | > 8.00 | – | – | –
CCCc1nc2ccnn2c(O)c1Cc1ccc(C(F)(F)F)c(F)c1 [Example 16, 6-{[3-Fluoro-4-(trifluoromethyl)phenyl]-methyl}-5-propylpyrazolo[1,5-a]-pyrimidin-7-ol] | > 8.00 | 6.00 to 7.00 | – | – | –
Oc1c(Cc2cc(F)cc(F)c2)c(C2CC2)nc2ccnn12 [Example 25, 5-Cyclopropyl-6-[(3,5-difluorophenyl)-methyl]pyrazolo[1,5-a]pyrimidin-7-ol] | > 8.00 | – | – | – | –
Oc1c(Cc2cc(F)c(F)c(F)c2)c(C2CCC2)nc2ccnn12 [Example 49, 5-Cyclobutyl-6-[(3,4,5-trifluorophenyl)-methyl]pyrazolo[1,5-a]pyrimidin-7-ol] | > 8.00 | – | – | – | –
Oc1c(Cc2cccc(Cl)c2)c(C2CC2)nc2ccnn12 [Example 21, 6-[(3-Chlorophenyl)methyl]-5-cyclo-propylpyrazolo[1,5-a]pyrimidin-7-ol] | > 8.00 | 7.00 to 8.00 | – | – | –
COC(=O)c1nc2ccnn2c(O)c1Cc1ccc(Cl)cc1 [Example 6, Methyl 6-[(4-chlorophenyl)methyl]-7-hydroxypyrazolo[1,5-a]pyrimidine-5-carboxylate] | 7.00 to 8.00 | – | – | – | –

Continued, in another order:

pKi (human CCR2 [1]) | pKi (human CCR2 [2]) | Structure (SMILES) | glomerular damage (semiquantitative score) [3] | monocyte and macrophage infiltration (semiquantitative score) [3] | tubular damage (semiquantitative score) [3]
> 8.00 | 7.00 to 8.00 | CCc1nc2ccnn2c(O)c1Oc1ccc(Cl)c(Cl)c1 [Example 64, 6-(3,4-Dichlorophenoxy)-5-ethyl-pyrazolo[1,5-a]pyrimidin-7-ol] | – | – | –
> 8.00 | 6.00 to 7.00 | CCOC(=O)c1nc2ccnn2c(O)c1Cc1cccc(Cl)c1 [Example 70, Ethyl 6-[(3-chlorophenyl)methyl]-7-hydroxypyrazolo[1,5-a]pyrimidine-5-carboxylate] | – | – | –
7.00 to 8.00 | – | Cc1nc2ccnn2c(O)c1Cc1ccc(Cl)c(Br)c1 [Example 9, 6-[(3-Bromo-4-chlorophenyl)methyl]-5-methylpyrazolo[1,5-a]pyrimidin-7-ol] | – | – | –
7.00 to 8.00 | 6.00 to 7.00 | Cc1nc2ccnn2c(O)c1Cc1ccc(Cl)cc1 [Example 1, 6-[(4-Chlorophenyl)methyl]-5-methylpyrazolo[1,5-a]pyrimidin-7-ol] | – | – | –
7.00 to 8.00 | – | Cc1nc2ccnn2c(O)c1Oc1cccc(F)c1 [Example 5, 6-(3-Fluorophenoxy)-5-methylpyrazolo[1,5-a]pyrimidin-7-ol] | – | – | –
7.00 to 8.00 | – | CCOC(=O)c1nc2ccnn2c(O)c1Oc1ccc(Cl)c(F)c1 [Example 75, Ethyl 6-(4-chloro-3-fluorophenoxy)-7-hydroxypyrazolo[1,5-a]pyrimidine-5-carboxylate] | – | – | –
> 8.00 | 6.00 to 7.00 | Oc1c(Oc2ccc(Br)cc2)c(C2CC2)nc2ccnn12 [Example 65, 6-(4-Bromophenoxy)-5-cyclopropyl-pyrazolo[1,5-a]pyrimidin-7-ol] | – | – | –

Source: patent US20130252951A1, “7-HYDROXY-PYRAZOLO[1,5-A] PYRIMIDINE COMPOUNDS AND THEIR USE AS CCR2 RECEPTOR ANTAGONISTS” (Proximagen Limited, priority 2010, published 2013)
